Experiments:
DGKζ = DGKζ (Homo sapiens (Human), UniProt Q13574); assay: Biochemical DGK IC50 assay, DGKζ ADP-Glo assay; details: 0.5 nM enzyme, 140 μM ATP, 80 μM DAG; read-out: DGKζ ADP-Glo assay IC50
Procedure: (§1) Enzymatic reactions of DGKζ, DGKα and DGKδ were performed using ADP-Glo assay with lipid micelle substrate. […] Full length DGKα (D21-10BG, SignalChem) and full length DGKδ (D23-10G, SignalChem) were purchased. Lipid micelle was prepared by dissolving DAG (Sigma, 317505-10MG) and PS (Sigma, P7769-100MG) with chloroform which was furtherly removed by rotary evaporation. The resulted product was resuspended in buffer containing 25 mM HEPES pH 7.0, 0.5 mM EDTA and 160 mM Octyl β-D glucopyranoside by vigorous mixing and ultrasonic (IID, Scientz).
(§2) The ranges of compounds final concentration were 1.55˜10000 nM or 23.3˜150000 nM. 3 μL 2× enzyme solution was added to wells.
Human His-TEV-DGK-zeta-pFastBac1 and human baculovirus samples was generated using the Bac-to-Bac baculovirus expression system (Invitrogen) according to the manufacturer's protocol. The DNA used for expression of DGK-zeta, have SEQ ID Nos: 1. Baculovirus amplification was achieved using infected SF9 cells at 1:2000 virus/cells ratios, and grown for 96 hours at 27° C. post-transfected.
The expression scaled up for each protein was carried out in the […] from CORNING. 4 L of 3×10^6 cells/mL Sf9 cells (Expression System, Invitrogen) grown in SF900™ II SFM insect medium (Expression System) was infected with virus stock at 1:200 virus/cells ratio, and grown for 48 hours at 27° C. post-transfection. The infected cell culture was harvested by centrifugation at 6000 rpm for 15 min 4° C. in a SORVALL LYNX6000 centrifuge. The cell pellets were stored at −80° C.
Full length human DGKζ produced as described above, was purified from Sf9 baculovirus-infected insect cell paste. The cells were lysed using sonication method, and the lysates were clarified by centrifugation.

DGKα = DGKα (Homo sapiens (Human), UniProt P23743); assay: Biochemical DGK IC50 assay, DGKα ADP-Glo assay; details: 7.5 nM enzyme, 140 μM ATP, 80 μM DAG
Procedure: as §1, §2

Sequence of DGKζ (Q13574 other isoform, or with tags, fused parts or gaps): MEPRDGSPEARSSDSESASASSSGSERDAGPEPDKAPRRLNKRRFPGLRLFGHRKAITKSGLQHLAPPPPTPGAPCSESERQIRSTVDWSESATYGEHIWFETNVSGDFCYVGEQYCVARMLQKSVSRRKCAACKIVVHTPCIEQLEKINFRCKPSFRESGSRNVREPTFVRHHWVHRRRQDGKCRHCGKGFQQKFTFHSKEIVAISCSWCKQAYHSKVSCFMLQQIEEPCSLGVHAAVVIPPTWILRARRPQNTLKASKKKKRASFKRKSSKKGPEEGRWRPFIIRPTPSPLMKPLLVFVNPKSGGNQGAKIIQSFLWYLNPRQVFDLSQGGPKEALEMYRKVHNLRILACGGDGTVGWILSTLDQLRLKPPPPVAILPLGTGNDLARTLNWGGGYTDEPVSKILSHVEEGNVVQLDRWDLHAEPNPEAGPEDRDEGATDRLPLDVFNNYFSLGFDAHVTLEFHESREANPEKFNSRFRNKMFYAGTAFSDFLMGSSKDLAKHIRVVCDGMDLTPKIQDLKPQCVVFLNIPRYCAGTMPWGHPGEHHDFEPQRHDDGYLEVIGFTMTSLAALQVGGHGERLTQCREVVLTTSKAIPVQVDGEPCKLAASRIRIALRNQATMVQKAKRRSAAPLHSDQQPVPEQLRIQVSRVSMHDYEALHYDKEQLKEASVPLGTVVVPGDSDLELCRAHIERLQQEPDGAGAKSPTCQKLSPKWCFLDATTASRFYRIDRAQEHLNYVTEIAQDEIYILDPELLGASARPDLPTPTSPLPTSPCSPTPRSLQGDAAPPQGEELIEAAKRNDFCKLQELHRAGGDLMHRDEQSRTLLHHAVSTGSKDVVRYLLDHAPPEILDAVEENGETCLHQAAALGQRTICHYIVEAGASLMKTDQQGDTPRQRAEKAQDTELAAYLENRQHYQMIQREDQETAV
Sequence of DGKα (P23743 whole entry): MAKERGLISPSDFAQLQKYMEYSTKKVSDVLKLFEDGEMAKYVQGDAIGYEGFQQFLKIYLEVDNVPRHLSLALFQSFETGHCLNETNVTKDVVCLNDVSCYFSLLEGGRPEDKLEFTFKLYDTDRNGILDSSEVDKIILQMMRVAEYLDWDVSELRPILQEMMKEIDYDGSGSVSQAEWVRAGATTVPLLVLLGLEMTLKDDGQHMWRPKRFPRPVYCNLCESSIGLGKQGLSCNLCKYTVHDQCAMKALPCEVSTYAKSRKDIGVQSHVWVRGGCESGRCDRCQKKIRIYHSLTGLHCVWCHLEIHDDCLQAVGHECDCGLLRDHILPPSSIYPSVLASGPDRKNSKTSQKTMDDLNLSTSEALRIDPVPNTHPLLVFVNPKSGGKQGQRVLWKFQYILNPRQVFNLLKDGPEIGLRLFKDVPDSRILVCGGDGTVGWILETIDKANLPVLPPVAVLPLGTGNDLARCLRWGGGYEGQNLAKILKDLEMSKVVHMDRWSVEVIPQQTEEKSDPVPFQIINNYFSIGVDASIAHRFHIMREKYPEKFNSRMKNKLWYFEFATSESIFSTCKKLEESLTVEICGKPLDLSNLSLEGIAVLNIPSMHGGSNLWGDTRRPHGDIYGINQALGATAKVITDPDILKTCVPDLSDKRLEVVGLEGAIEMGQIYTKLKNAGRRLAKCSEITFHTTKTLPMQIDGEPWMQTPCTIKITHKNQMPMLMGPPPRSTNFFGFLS

Row | SMILES | IC50 (DGKζ) [µM] | IC50 (DGKα) [µM]
1 | C[C@@H](c1ccc2nccnc2c1)N1CCN(c2cc(=O)n(C)c3cn(CC#N)nc23)CC1C(N)=O (single isomer, unassigned) [Compound A198a] | > 10 | > 10
2 | C[C@H](c1ccc2nccnc2c1)N1CCN(c2cc(=O)n(C)c3cn(CC#N)nc23)CC1C(N)=O (single isomer, unassigned) [Compound A198b] | > 10 | > 10
3 | CC[C@H]1CN(C(C)c2ccc(C3CC3)cc2OC)[C@H](CC)CN1c1cc(=O)n(C)c2cn(CC#N)nc12 (single isomer, unassigned) [Compound A199a] | 2.46 | > 10
4 | CC[C@H]1CN(C(C)c2ccc(C3CC3)cc2OC)[C@H](CC)CN1c1cc(=O)n(C)c2cn(CC#N)nc12 (single isomer, unassigned) [Compound A199b] | 0.803 | > 10
5 | CC[C@@H]1CN(c2c(C#N)c(=O)[nH]c3cn(CC#N)nc23)[C@@H](C)CN1C(C)c1ccc2nccnc2c1 (single isomer, unassigned) [Compound A200a] | 0.102 | 7.08
6 | CC[C@@H]1CN(c2c(C#N)c(=O)[nH]c3cn(CC#N)nc23)[C@@H](C)CN1C(C)c1ccc2nccnc2c1 (single isomer, unassigned) [Compound A200b] | 5.38 | > 10
7 | CC[C@H]1CN(C(C)c2c(F)cc(F)cc2OC)[C@H](CC)CN1c1cc(=O)n(C)c2cn(CC#N)nc12 (single isomer, unassigned) [Compound A201a] | 0.043 | > 10
8 | CC[C@H]1CN(C(C)c2c(F)cc(F)cc2OC)[C@H](CC)CN1c1cc(=O)n(C)c2cn(CC#N)nc12 (single isomer, unassigned) [Compound A201b] | > 10 | > 10
9 | CC[C@@H]1CN(c2cc(=O)n(C)c3cn(CC#N)nc23)[C@@H](C)CN1C(C)c1ccc(C(F)(F)F)cc1F (single isomer, unassigned) [Compound A202a] | 0.176 | 0.7
10 | CC[C@@H]1CN(c2cc(=O)n(C)c3cn(CC#N)nc23)[C@@H](C)CN1C(C)c1ccc(C(F)(F)F)cc1F (single isomer, unassigned) [Compound A202b] | 3.03 | 1.28
11 | CC[C@H]1CN(C(C)c2nc3cc(C(F)(F)F)ccc3n2CC)[C@H](CC)CN1c1cc(=O)n(C)c2cn(CC#N)nc12 (single isomer, unassigned) [Compound A203a] | 2.21 | > 10
12 | CC[C@H]1CN(C(C)c2nc3cc(C(F)(F)F)ccc3n2CC)[C@H](CC)CN1c1cc(=O)n(C)c2cn(CC#N)nc12 (single isomer, unassigned) [Compound A203b] | 0.233 | > 10
13 | CC[C@H]1CN(C(C)c2nc3ccc(C(F)(F)F)cc3n2CC)[C@H](CC)CN1c1cc(=O)n(C)c2cn(CC#N)nc12 (single isomer, unassigned) [Compound A204a] | 3.29 | > 10
14 | CC[C@H]1CN(C(C)c2nc3ccc(C(F)(F)F)cc3n2CC)[C@H](CC)CN1c1cc(=O)n(C)c2cn(CC#N)nc12 (single isomer, unassigned) [Compound A204b] | 0.298 | > 10
15 | CCc1c(C(C)N2C[C@H](CC)N(c3cc(=O)n(C)c4cn(CC#N)nc34)C[C@H]2CC)cnn1C (single isomer, unassigned) [Compound A213a] | 1.36 | > 10
16 | CCc1c(C(C)N2C[C@H](CC)N(c3cc(=O)n(C)c4cn(CC#N)nc34)C[C@H]2CC)cnn1C (single isomer, unassigned) [Compound A213b] | > 10 | > 10
17 | CC[C@H]1CN([C@H](C)c2nc3ncccc3n2CC)[C@H](CC)CN1c1cc(=O)n(C)c2cn(CC#N)nc12 (single isomer, unassigned) [Compound A215a] | > 10 | > 10
18 | CC[C@H]1CN([C@@H](C)c2nc3ncccc3n2CC)[C@H](CC)CN1c1cc(=O)n(C)c2cn(CC#N)nc12 (single isomer, unassigned) [Compound A215b] | 1.14 | > 10

Row | SMILES | IC50 (DGKζ) [µM] | IC50 (DGKα) [µM]
19 | CC[C@@H]1CN(c2cc(=O)n(C)c3cn(CC#N)nc23)[C@@H](C)CN1C(C)c1ccc(F)cc1C(F)(F)F (single isomer, unassigned) [Compound A218b] | 3.96 | > 10
20 | CC(c1ccc2nccnc2c1)N1C[C@H](C)N(c2nc(=O)n(C)c3cn(CC#N)nc23)C[C@H]1C (single isomer, unassigned) [Compound A220, 2-(7-((2S,5R)-2,5-dimethyl-4-((S)-1-(quinoxalin-6-yl)ethyl)piperazin-1-yl)-4-methyl-5-oxo-4,5-dihydro-2H-pyrazolo[4,3-d]pyrimidin-2-yl)acetonitrile, or 2-(7-((2S,5R)-2,5-dimethyl-4-((R)-1-(quinoxalin-6-yl)ethyl)piperazin-1-yl)-4-methyl-5-oxo-4,5-dihydro-2H-pyrazolo[4,3-d]pyrimidin-2-yl)acetonitrile] | 0.067 | 8.69
21 | CC[C@@H]1CN(c2cc(=O)n(C)c3cn(CC)nc23)[C@@H](C)CN1C(C)c1ccc2nccnc2c1 (single isomer, unassigned) [Compound A221a] | 0.216 | 1.09
22 | CC[C@@H]1CN(c2cc(=O)n(C)c3cn(CC)nc23)[C@@H](C)CN1C(C)c1ccc2nccnc2c1 (single isomer, unassigned) [Compound A221b] | > 10 | 2.37
23 | CC[C@@H]1CN(c2cc(=O)n(C)c3cn(CC(F)F)nc23)[C@@H](C)CN1C(C)c1ccc2nccnc2c1 (single isomer, unassigned) [Compound A222a] | 0.452 | 5.25
24 | CC[C@@H]1CN(c2cc(=O)n(C)c3cn(CC(F)F)nc23)[C@@H](C)CN1C(C)c1ccc2nccnc2c1 (single isomer, unassigned) [Compound A222b] | > 10 | 7.42
25 | CC[C@H]1CN(C(C)c2ccc(F)cc2C#N)[C@H](CC)CN1c1cc(=O)n(C)c2cn(CC#N)nc12 (single isomer, unassigned) [Compound A224a] | 0.122 | 1.09
26 | CC[C@H]1CN(C(C)c2ccc(F)cc2C#N)[C@H](CC)CN1c1cc(=O)n(C)c2cn(CC#N)nc12 (single isomer, unassigned) [Compound A224b] | 4.94 | 4.15
27 | CC[C@H]1CN(C(C)c2c(C)cnn2CC)[C@H](CC)CN1c1cc(=O)n(C)c2cn(CC#N)nc12 (single isomer, unassigned) [Compound A227a] | > 10 | > 10
28 | CC[C@H]1CN(C(C)c2c(C)cnn2CC)[C@H](CC)CN1c1cc(=O)n(C)c2cn(CC#N)nc12 (single isomer, unassigned) [Compound A227b] | 0.691 | > 10
29 | CC[C@H]1CN(C(C)c2nc3cccc(C(F)(F)F)c3n2CC)[C@H](CC)CN1c1cc(=O)n(C)c2cn(CC#N)nc12 (single isomer, unassigned) [Compound A230a] | 1.44 | > 10
30 | CC[C@H]1CN(C(C)c2nc3cccc(C(F)(F)F)c3n2CC)[C@H](CC)CN1c1cc(=O)n(C)c2cn(CC#N)nc12 (single isomer, unassigned) [Compound A230b] | 0.494 | 6.2
31 | CC[C@H]1CN(C(C)c2ccc(C(F)(F)F)cc2F)[C@H](CC)CN1c1cc(=O)n(C)c2c[nH]nc12 (single isomer, unassigned) [Compound A231a] | > 10 | 1.12
32 | CC[C@H]1CN(C(C)c2ccc(C(F)(F)F)cc2F)[C@H](CC)CN1c1cc(=O)n(C)c2c[nH]nc12 (single isomer, unassigned) [Compound A231b] | > 10 | 0.303
33 | CC(c1ccc(F)cc1C(F)(F)F)N1C[C@H](C)N(c2cc(=O)n(C)c3cn(CC#N)nc23)C[C@H]1C (single isomer, unassigned) [Compound A236a] | > 10 | > 10
34 | CC(c1ccc(F)cc1C(F)(F)F)N1C[C@H](C)N(c2cc(=O)n(C)c3cn(CC#N)nc23)C[C@H]1C (single isomer, unassigned) [Compound A236b] | 0.178 | 77.4
35 | CC#CCn1cc2c(n1)c(N1C[C@@H](CC)N(C(C)c3ccc(F)cc3C(F)(F)F)C[C@@H]1CC)cc(=O)n2C (single isomer, unassigned) [Compound A238b] | 0.256 | 1.24

Source: patent US20240270751A1, “Pyrazolopyridinone Compounds” (BeiGene Ltd., priority 2021, published 2024)
